The values that follow come from patent US7932421B2, “N-cyclohexyl benzamides and benzeneacetamides as inhibitors of 11-beta-hydroxysteroid dehydrogenases” (Amgen Inc., priority 2006, dated 2011).

SMILES strings stand for the structures. A value given as a limit tells only on which side of the number the result lay.

The target in the assay is T1, human 11β-HSD1 (Homo sapiens, UniProt P28845).
T1 construct: made in house
T1 sequence (P28845 whole entry): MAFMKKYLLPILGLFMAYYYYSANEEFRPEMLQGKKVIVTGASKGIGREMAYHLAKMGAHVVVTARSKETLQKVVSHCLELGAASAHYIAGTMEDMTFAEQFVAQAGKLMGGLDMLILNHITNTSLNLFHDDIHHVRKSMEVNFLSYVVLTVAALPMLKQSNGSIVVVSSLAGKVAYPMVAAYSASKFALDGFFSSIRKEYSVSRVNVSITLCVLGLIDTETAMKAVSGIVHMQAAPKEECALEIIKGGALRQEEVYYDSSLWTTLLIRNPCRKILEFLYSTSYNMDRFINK
Nature of the assay: hHSD1 SPA: inhibition of 11β-HSD1 (cortisone to cortisol conversion, scintillation proximity assay). It is filed as biochemical. The note with it: recombinant human 11β-HSD1, SPA. How it is done:
Inhibition of 11β-HSD1 activity was examined by quantitative determination, by an SPA (scintillation proximity assay) system, of the suppressive action on the conversion from cortisone to cortisol using human 11β-HSD1 (hereinafter recombinant 11β-HSD1) expressed using a baculo-virus system as an enzyme source. For the reaction, a reagent was added to a 96-well plate (96-well Opti-plates™-96 (Packard)) to the following final concentration and a volume of 100 μl, and the reaction transpired at room temperature for 90 min. The reaction solution used was 0.1 μg/ml recombinant 11β-HSD1, 500 μM NADPH, 16 nM ^3H cortisone (Amersham Biosciences, […]) dissolved in 0.1% BSA (Sigma)-containing PBS and the test drug was 2 μl of a compound solution (dissolved in DMSO). […] After completion of the reaction, the plate was incubated overnight at room temperature and the radioactivity was measured by Topcount (Packard). […] The inhibition (%) of the test drug was calculated by ((value of control−value of test drug)/(value of control−value of positive control))×100(%). The IC50 value was analyzed using a computer-based curve fitting software.
Recombinant human, mouse and rat 11β-HSD1 were expressed in baculovirus expression system, isolated by affinity purification and used as the enzyme sources for cortisone to cortisol conversion in vitro. ^3H-Cortisone (Amersham Bioscience, […]. 49 Ci/mmol) was used as the substrate, and a monoclonal anti-cortisol antibody and the scintillation proximity assay (SPA) system were used to detect the product of the 11β-HSD1-catalyzed reaction, ^3H-cortisol. Reactions took place at room temperature for 90 min. in 96-well Opti-plates™-96 (Packard) in 100 μL volume with 2 μL test compounds or control in DMSO, 0.1 μg/mL 11β-HSD1 protein, 500 μM NADPH and 16 nM radioactive cortisone, in PBS buffer supplemented with 0.1% BSA (Sigma).
Plates were incubated at room temperature overnight before being read on a Topcount (Packard). The point of 50% inhibition of 11β-HSD1 enzyme activity (IC50) was determined by computer-based curve fitting.
Regarding `O=C(c1ccc(F)cc1)N(C1CC1)[C@H]1CC[C@H](CCO)CC1` [Compound 5, N-Cyclopropyl-4-fluoro-N-(trans-4-(2-hydroxyethyl)cyclohexyl)benzamide], the IC50 is 0.0219 µM.
Take `O=C(c1ccc(F)cc1)N(C1CC1)[C@H]1CC[C@](CCO)(c2ccccn2)CC1` [Compound 16]: the IC50 was greater than 0.1 µM.
Then `COc1ccc(C(=O)N(C2CC2)[C@H]2CC[C@](CCO)(c3ccccn3)CC2)c(F)c1` [Compound 25], with 0.0217 µM; and `Cc1ccc(C(=O)N(C2CC2)[C@H]2CC[C@](CCO)(c3ccccn3)CC2)cc1` [Compound 26], with 0.0114 µM.
As to `Cc1ccc(C(=O)N(C2CC2)[C@H]2CC[C@H](CC(C)(C)O)CC2)c(F)c1` [Compound 2, N-cyclopropyl-2-fluoro-N-(trans-4-(2-hydroxy-2-methylpropyl)cyclohexyl)-4-methylbenzamide], the IC50 worked out at 0.00689 µM.
On to `CC(C)(C)c1ccc(C(=O)N(C2CC2)[C@H]2CC[C@](CCO)(c3ccccn3)CC2)cc1` [Compound 29], for which the IC50 amounted to 0.0121 µM.
Then `COc1ccc(C(=O)N(C2CC2)[C@H]2CC[C@H](CCO)CC2)cc1` [Compound 9], with 0.00635 µM; and `O=C(c1ccc(Cl)cc1)N(C1CC1)[C@H]1CC[C@](CCO)(c2ccccn2)CC1` [Compound 19], with 0.023 µM; and `O=C(c1ccccc1)N(C1CC1)[C@H]1CC[C@H](CCO)CC1` [Compound 13, N-Cyclopropyl-N-(trans-4-(2-hydroxyethyl)cyclohexyl)benzamide], with 0.0183 µM.
For the compound `COc1cccc(C(=O)N(C2CC2)[C@H]2CC[C@](CCO)(c3ccccn3)CC2)c1` [Compound 23], the IC50 is 0.0614 µM.
In the case of `O=C(c1cccc(F)c1)N(C1CC1)[C@H]1CC[C@H](CCO)CC1` [Compound 4, N-Cyclopropyl-3-fluoro-N-(trans-4-(2-hydroxyethyl)cyclohexyl)benzamide], the 50% inhibitory concentration (IC50) is 0.0405 µM.
As to `O=C(c1ccccc1F)N(C1CC1)[C@H]1CC[C@H](CCO)CC1` [Compound 3, N-Cyclopropyl-2-fluoro-N-(trans-4-(2-hydroxyethyl)cyclohexyl)benzamide], the IC50 was 0.00395 µM.
With `Cc1ccc(C(=O)N(C2CC2)[C@H]2CC[C@H](CCO)CC2)c(F)c1` [Compound 1, N-cyclopropyl-2-fluoro-N-(trans-4-(2-hydroxyethyl)cyclohexyl)-4-methylbenzamide], the IC50 was 0.00194 µM.
Consider `O=C(c1ccc(C(F)(F)F)cc1)N(C1CC1)[C@H]1CC[C@](CCO)(c2ccccn2)CC1` [Compound 31], for which the IC50 is 0.0543 µM.
As for `CC(C)c1ccc(C(=O)N(C2CC2)[C@H]2CC[C@](CCO)(c3ccccn3)CC2)cc1` [Compound 28], the half-inhibitory concentration (IC50) is 0.0072 µM.
With `O=C(c1ccc(Br)cc1F)N(C1CC1)[C@H]1CC[C@H](CCO)CC1` [Compound 8, 4-Bromo-N-cyclopropyl-2-fluoro-N-(trans-4-(2-hydroxyethyl)cyclohexyl)benzamide], the IC50 is 0.00106 µM.
Regarding `O=C(c1cccc(F)c1F)N(C1CC1)[C@H]1CC[C@H](CCO)CC1` [Compound 7, N-Cyclopropyl-2,3-difluoro-N-(trans-4-(2-hydroxyethyl)cyclohexyl)benzamide], the IC50 came to 0.0308 µM.
`CN(C)C(=O)c1ccc(C(=O)N(C2CC2)[C@H]2CC[C@](CCO)(c3ccccn3)CC2)cc1` [Compound 27]: the IC50 is greater than 0.1 µM.
Under `O=C(c1ccccc1F)N(C1CC1)[C@H]1CC[C@](CCO)(c2ccccn2)CC1` [Compound 14] stands 0.0209 µM; under `CC(C)c1ccc(C(=O)N(C2CC2)[C@H]2CC[C@H](CCO)CC2)cc1` [Compound 11, N-Cyclopropyl-4-isopropyl-N-(trans-4-(2-hydroxyethyl)cyclohexyl)benzamide], 0.00094 µM.
As for `O=C(c1ccc(Cl)cc1)N(C1CC1)[C@H]1CC[C@H](CCO)CC1` [Compound 6, 4-Chloro-N-cyclopropyl-N-(trans-4-(2-hydroxyethyl)cyclohexyl)benzamide], the IC50 was determined as 0.0069 µM.
As to `O=C(c1cccc(F)c1)N(C1CC1)[C@H]1CC[C@](CCO)(c2ccccn2)CC1` [Compound 15], the IC50 was determined as 0.0452 µM.
Then `CC(C(=O)N(C1CC1)[C@H]1CC[C@H](CCO)CC1)c1ccccc1` (stereo partly drawn) [Compound 32, N-Cyclopropyl-N-(trans-4-(2-hydroxyethyl)cyclohexyl)-2-phenylpropionamide], with 0.0521 µM.
Then `COc1ccc(C(=O)N(C2CC2)[C@H]2CC[C@](CCO)(c3ccccn3)CC2)cc1` [Compound 24], with 0.0594 µM.

In general, IC50 refers to the concentration at which inhibition is half-maximal.
